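48-hour exposure; five concentrations; linearly interpolated endpoints. Abbreviation: GI50, concentration required for 50% inhibition of growth.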 Calls of active or inactive are those of the source. Cut-off read from the data, not from the text of the source: active = GI50 up to about 1.1 µM and inactive = higher. Where a SMILES comes first, the peptide text is derived from it. [ ]: non-standard residue; d: D form. The star is where a group is joined. Phe(2-OMe) = COc1ccccc1C[CH](N)C(=O)O; Cbz = O=C(OCc1ccccc1)*; OBn = c1ccc(CO*)cc1
Columns and labels:
Assay in all cases: growth of human tumour cells (NCI), 48 h
A498 = system: A498
CAKI-1 = system: CAKI-1
HCT-15 = system: HCT-15
HOP-62 = system: HOP-62
KM12 = system: KM12
M14 = system: M14
NCI-H460 = system: NCI-H460
OVCAR-3 = system: OVCAR-3
RPMI-8226 = system: RPMI-8226
SF-268 = system: SF-268
SK-MEL-2 = system: SK-MEL-2
SK-MEL-5 = system: SK-MEL-5
SN12C = system: SN12C
SNB-19 = system: SNB-19
U-251 = system: U-251
UACC-62 = system: UACC-62
UO-31 = system: UO-31
MDA-MB-231 = system: MDA-MB-231
PC-3 = system: PC-3
DU-145 = system: DU-145

Row | Compound | GI50 (A498) | GI50 (CAKI-1) | GI50 (HCT-15) | GI50 (HOP-62) | GI50 (KM12) | GI50 (M14) | GI50 (NCI-H460) | GI50 (OVCAR-3) | GI50 (RPMI-8226) | GI50 (SF-268) | GI50 (SK-MEL-2) | GI50 (SK-MEL-5) | GI50 (SN12C) | GI50 (SNB-19) | GI50 (U-251) | GI50 (UACC-62) | GI50 (UO-31) | GI50 (MDA-MB-231) | GI50 (PC-3) | GI50 (DU-145)
1 | O=C1CCC(=O)C1=NNc1cc(Cl)cc(Cl)c1 | 15.6 µM (inactive) | > 100 µM (inactive) | 55.8 µM | > 100 µM (inactive) | > 100 µM (inactive) | > 100 µM (inactive) | 71.8 µM (inactive) | 26.2 µM (inactive) | 32.7 µM (inactive) | > 100 µM (inactive) | > 100 µM (inactive) | 61.5 µM (inactive) | > 100 µM (inactive) | > 100 µM (inactive) | 69.2 µM (inactive) | > 100 µM (inactive) | > 100 µM (inactive) |  |  | 
2 | O=C1C2CC=CCC2C(=O)N1n1c(-c2ccccc2)n[nH]c1=O (configuration not stated) | > 100 µM (inactive) | > 100 µM (inactive) | > 100 µM | > 100 µM (inactive) | > 100 µM (inactive) | > 100 µM (inactive) | > 100 µM (inactive) | > 100 µM (inactive) | > 100 µM (inactive) | > 100 µM (inactive) | > 100 µM (inactive) | > 100 µM (inactive) | > 100 µM (inactive) | > 100 µM (inactive) | > 100 µM (inactive) | > 100 µM (inactive) | > 100 µM (inactive) | > 100 µM (inactive) | > 100 µM (inactive) | 
3 | CCOC(=O)/C=C(/C(=O)OCC)n1ccc(=O)n(Cc2cn(CCCCOC(C)=O)nn2)c1=O |  | 23.3 µM (inactive) | 59.4 µM | > 100 µM (inactive) | > 100 µM (inactive) |  | > 100 µM (inactive) | > 100 µM (inactive) | 89.3 µM (inactive) | > 100 µM (inactive) | > 100 µM (inactive) | > 100 µM (inactive) | > 100 µM (inactive) | > 100 µM (inactive) | > 100 µM (inactive) | > 100 µM (inactive) | > 100 µM (inactive) | > 100 µM (inactive) | > 100 µM (inactive) | > 100 µM (inactive)
4 | Cn1c(=O)c2[nH]cnc2n(CC(=O)O)c1=O | > 100 µM (inactive) | > 100 µM (inactive) | > 100 µM | > 100 µM (inactive) | > 100 µM (inactive) | > 100 µM (inactive) | > 100 µM (inactive) | > 100 µM (inactive) | > 100 µM (inactive) | > 100 µM (inactive) | > 100 µM (inactive) | > 100 µM (inactive) | > 100 µM (inactive) | > 100 µM (inactive) | > 100 µM (inactive) | > 100 µM (inactive) | > 100 µM (inactive) |  |  | 
5 | COC(=O)C(=O)C(C(=O)C=C(C)C)C(=O)C(=O)Nc1ccc(C)cc1C (configuration not stated) | > 100 µM (inactive) | > 100 µM (inactive) | > 100 µM | > 100 µM (inactive) | > 100 µM (inactive) | > 100 µM (inactive) | > 100 µM (inactive) | > 100 µM (inactive) | > 100 µM (inactive) | > 100 µM (inactive) | > 100 µM (inactive) | > 100 µM (inactive) | > 100 µM (inactive) | > 100 µM (inactive) | > 100 µM (inactive) | > 100 µM (inactive) | > 100 µM (inactive) |  |  | 
6 | O=c1[nH]c2cc3cccnc3c(Cl)c2nc1CBr |  | 15.1 µM (inactive) | 3.08 µM | 15.5 µM (inactive) | 15.5 µM (inactive) | 13.5 µM (inactive) | 19 µM (inactive) | 14.8 µM (inactive) | 6.05 µM (inactive) | 22.2 µM (inactive) |  | 17.5 µM (inactive) | 14 µM (inactive) | 5.73 µM (inactive) | 15.4 µM (inactive) | 12.4 µM (inactive) | 10.5 µM (inactive) | 15.9 µM (inactive) | 15.7 µM (inactive) | 15.6 µM (inactive)
7 | CCCNC(=S)NNC(=O)CSc1nc(-c2ccccc2)c(-c2ccccc2)[nH]1 | 77.6 µM (inactive) | 33.3 µM (inactive) | 49.3 µM | > 100 µM (inactive) | 33 µM (inactive) | 24.1 µM (inactive) | 39.9 µM (inactive) | 28 µM (inactive) | 28.4 µM (inactive) | > 100 µM (inactive) | > 100 µM (inactive) | 25.9 µM (inactive) | 74 µM (inactive) | 88.1 µM (inactive) | 56.1 µM (inactive) | > 100 µM (inactive) | 30.8 µM (inactive) |  |  | 
8 | CC(/C=C/C(=O)c1sc(C(N)=S)nc1C)=C\c1ccccc1 | > 100 µM (inactive) | 23.4 µM (inactive) | > 100 µM | > 100 µM (inactive) | > 100 µM (inactive) | > 100 µM (inactive) | 35.4 µM (inactive) | > 100 µM (inactive) | 19.3 µM (inactive) | > 100 µM (inactive) | > 100 µM (inactive) | > 100 µM (inactive) | > 100 µM (inactive) | 15.1 µM (inactive) | > 100 µM (inactive) | > 100 µM (inactive) | > 100 µM (inactive) |  |  | 
9 | CC(C)(C)/N=N/C(C)(C)N=C=O | > 100 µM (inactive) | > 100 µM (inactive) | > 100 µM | > 100 µM (inactive) | > 100 µM (inactive) | > 100 µM (inactive) | > 100 µM (inactive) | > 100 µM (inactive) | > 100 µM (inactive) | > 100 µM (inactive) | > 100 µM (inactive) | > 100 µM (inactive) | > 100 µM (inactive) | > 100 µM (inactive) | > 100 µM (inactive) | > 100 µM (inactive) | > 100 µM (inactive) |  |  | 
10 | NS(=O)(=O)c1nnc(NS(=O)(=O)c2ccccc2C(=O)O)s1 | > 100 µM (inactive) | > 100 µM (inactive) | > 100 µM | > 100 µM (inactive) | > 100 µM (inactive) | > 100 µM (inactive) | > 100 µM (inactive) | > 100 µM (inactive) | > 100 µM (inactive) | > 100 µM (inactive) | > 100 µM (inactive) | > 100 µM (inactive) | > 100 µM (inactive) | > 100 µM (inactive) | > 100 µM (inactive) | > 100 µM (inactive) | > 100 µM (inactive) | > 100 µM (inactive) |  | > 100 µM (inactive)
11 | CC(NNC(=O)c1ccc[n+]([BH2-]C#N)c1)c1ccccc1 (configuration not stated) |  | > 100 µM (inactive) | > 100 µM | > 100 µM (inactive) | > 100 µM (inactive) | > 100 µM (inactive) | > 100 µM (inactive) | > 100 µM (inactive) |  | > 100 µM (inactive) | > 100 µM (inactive) | > 100 µM (inactive) | > 100 µM (inactive) | > 100 µM (inactive) | > 100 µM (inactive) | > 100 µM (inactive) | > 100 µM (inactive) | > 100 µM (inactive) | > 100 µM (inactive) | > 100 µM (inactive)
12 | COC(=O)C(Cc1ccccc1OC)NC(=O)C(CC(=O)OCc1ccccc1)NC(=O)OCc1ccccc1 (configuration not stated) (Cbz-Asp(OBn)-[Phe(2-OMe)]-OMe; configuration not given here) | 88.1 µM (inactive) |  |  | > 100 µM (inactive) | > 100 µM (inactive) | > 100 µM (inactive) | 34.4 µM (inactive) |  | 41 µM (inactive) |  | > 100 µM (inactive) | > 100 µM (inactive) |  | > 100 µM (inactive) | 97.5 µM (inactive) | 82 µM (inactive) | 64.6 µM (inactive) |  | 60 µM (inactive) | 

From ChEMBL document CHEMBL1201862, “PubChem BioAssay data set” (2004)
